Measurements reported in US20240300972A1, “THIOPHENE-BASED LIPIDS” (Oregon State University, priority 2021, published 2024).

Tests used:
[1] = system: HeLa (human cervical epithelial cells); experiment: In vitro transfection efficiency of FLuc mRNA LNPs, ONE-Glo Luciferase Assay; format: cell-based; details: for dose response of transfection efficiency: 50 vs 200 ng/well; for transfection profile and cytotoxicity: compared to negative control (PBS) and positive control (MC3 LNPs at the same dose)
Protocol: (§1) Mammalian cell lines used to measure cytotoxicity and transfection efficiency include HeLa (human cervical epithelial cells), HEK293T/17 (human embryonic kidney cells), HepG2 (human liver epithelial-like cells), and Jurkat E6-1 (human T-lymphocytes). The cells were seeded at 4000 cells/well in a 96-well plate and incubated for 24 hours. The next day, the LNPs of interest were diluted with 1×PBS to 50 ng/ul and administered at predetermined doses to the cells. The cell viability and transfection efficiency were evaluated on the following day (after 24-hour incubation of cells with LNPs). The cell viability was measured with Promega CellTiter-Fluor Cell Viability Assay, and the transfection efficiency was measured with Promega ONE-Glo Luciferase Assay System using Tecan Infinite M200 PRO multimode plate reader instrument. The dose range varied from 50 to 200 ng of nucleic acid per well.

BALB/c mice = experiment: In vivo bioluminescence imaging after administration of Fluc mRNA nanoparticle formulations; parameters: species or system mouse; details: for luminescent signals detected by in vivo imaging / pattern / origin of luminescence (transfected tissues) / degree of transfection (light flux) in the tested series: intravenous administration; for luminescent signals detected by in vivo imaging / degree of transfection (light flux) in the tested series: mice; for pattern / origin of luminescence (transfected tissues): in vivo and ex vivo organs; for light flux compared to the negative control: normal (50:10:38.5:1.5) and highly PEGylated (50:7:38.5:4.5) formulations; for transfection after intramuscular administration: flanks of mice
Protocol: A nanoparticle formulation including firefly luciferase (Fluc) mRNA was administered to BALB/c mice by intravenous, intramuscular, intravitreal, or subretinal injection. The intravenous injection was performed by tail-vein or retro-orbital injection. Mice that received a dose of nanoparticle formulation were housed until bioluminescence imaging. Bioluminescence imaging is a method to quantify luminescent signals from the subject. Prior to bioluminescence imaging, the mice were sedated with inhalation of isoflurane. The sedated mice received a dose of D-luciferin salt, which is a substrate of firefly luciferase, by intraperitoneal injection at 150 mg/kg 10 minutes prior to bioluminescence imaging. Bioluminescence imaging was performed on the mice with various exposure times ranging from 1 to 300 seconds using IVIS Lumina XRMS from PerkinElmer. To evaluate the protein expression at an organ level, internal organs of a mouse, such as the liver, lungs, kidneys, spleen, lymph nodes, and heart, and external tissues of mouse, such as muscle tissues close to a site of injection, were excised.

[2] = system: HEK293T/17 (human embryonic kidney cells); experiment: In vitro transfection efficiency of FLuc mRNA LNPs, ONE-Glo Luciferase Assay; format: cell-based; details: HEK293T/17, 200 ng (identical dose)
Protocol: as §1

[3] = system: HepG2 (human liver epithelial-like cells); experiment: as above; format: cell-based; details: HepG2, 200 ng (identical dose)
Protocol: as §1

Compound | dose response of transfection efficiency ([1]; HeLa) | transfection profile and cytotoxicity ([1]; HeLa) | luminescent signals detected by in vivo imaging (BALB/c mice) | pattern / origin of luminescence (transfected tissues) (BALB/c mice) | light flux compared to the negative control (BALB/c mice; subretinal administration) | luciferase signal (BALB/c mice; subretinal administration, “normal” formulation (1.5% PEG)) | degree of transfection (light flux) in the tested series (BALB/c mice) | decrease in transfection efficiency vs positive control ([1]; HeLa, MC3 LNPs at the same dose) | decline compared to the positive control [2] | decline compared to the positive control [3] | improvement compared to the positive control ([1]; HeLa cell line, 200 ng treatment) | transfection after intramuscular administration (BALB/c mice)
CCCCC/C=C\C/C=C\CCCCCCCC(=O)Nc1sc2c(c1C(=O)NCCCN(C)C)CCN(C(=O)CCCCCCC/C=C\C/C=C\CCCCC)C2 [29d, N-(3-(dimethylamino)propyl)-2-((9Z,12Z)-octadeca-9,12-dienamido)-6-((9Z,12Z)-octadeca-9,12-dienoyl)-4,5,6,7-tetrahydrothieno[2,3-c]pyridine-3-carboxamide] | inverse dose response | favorable transfection profile and cytotoxicity | successful transfection | spleen and lungs | – | – | – | – | – | – | – | –
CCCCC/C=C\C/C=C\CCCCCCCC(=O)Nc1sc2c(c1C(=O)N(CCCCCCCCCCCCCCCCCC)C(=O)CCCCCCC/C=C\C/C=C\CCCCC)CCN(C(=O)CCCN(C)C)C2 [26b, 6-(4-(dimethylamino)butanoyl)-2-((9Z,12Z)-octadeca-9,12-dienamido)-N-((9Z,12Z)-octadeca-9,12-dienoyl)-N-octadecyl-4,5,6,7-tetrahydrothieno[2,3-c]pyridine-3-carboxamide] | greater at 200 ng/well than at 50 ng/well | favorable transfection profile and cytotoxicity | successful transfection | local transfection | greater significant light flux | not detected | – | – | – | – | – | –
CCCCC/C=C\C/C=C\CCCCCCCCOC(=O)c1c(NC(=O)CCCCCCCCCCCCCCCCC)sc2c1CCNC2 [34a, (9Z,12Z)-octadeca-9,12-dien-1-yl 2-stearamido-4,5,6,7-tetrahydrothieno[2,3-c]pyridine-3-carboxylate] | – | favorable transfection profile and cytotoxicity | successful transfection | liver and spleen | – | – | highest light flux | – | – | – | – | –
CCCCC/C=C\C/C=C\CCCCCCCCOC(=O)c1c(NC(=O)CCCCCCC/C=C\C/C=C\CCCCC)sc2c1CCN(C(=O)CCCN(C)C)C2 [35a, (9Z,12Z)-octadeca-9,12-dien-1-yl 6-(4-(dimethylamino)butanoyl)-2-((9Z,12Z)-octadeca-9,12-dienamido)-4,5,6,7-tetrahydrothieno[2,3-c]pyridine-3-carboxylate] | – | favorable transfection profile and cytotoxicity | successful transfection | – | – | – | – | up to 4 ×fold | – | – | – | –
CCCCC/C=C\C/C=C\CCCCCCCCOC(=O)c1c(NC(=O)CCCCCCC/C=C\C/C=C\CCCCC)sc2c1CCNC2 [34b, (9Z,12Z)-octadeca-9,12-dien-1-yl 2-((9Z,12Z)-octadeca-9,12-dienamido)-4,5,6,7-tetrahydrothieno[2,3-c]pyridine-3-carboxylate] | – | favorable transfection profile and cytotoxicity | successful transfection | – | – | – | highest light flux | – | – | – | – | –
CCCCC/C=C\C/C=C\CCCCCCCC(=O)N(C(=O)CCCCCCC/C=C\C/C=C\CCCCC)c1sc2c(c1C(=O)OCC)CCN(C(=O)CCCN(C)C)C2 [19da, ethyl 6-(4-(dimethylamino)butanoyl)-2-((9Z,12Z)—N-((9Z,12Z)-octadeca-9,12-dienoyl)octadeca-9,12-dienamido)-4,5,6,7-tetrahydrothieno[2,3-c]pyridine-3-carboxylate] | greater at 200 ng/well than at 50 ng/well | favorable transfection profile and cytotoxicity | successful transfection | local transfection | greater significant light flux | – | – | – | 3 fold | 3 fold | ~5 fold | successful and comparable transfection of local tissues
6-(3-(dimethylamino)propanoyl)-2-((9Z,12Z)-octadeca-9,12-dienamido)-N-((9Z,12Z)-octadeca-9,12-dienoyl)-N-octadecyl-4,5,6,7-tetrahydrothieno[2,3-c]pyridine-3- [26a] | greater at 200 ng/well than at 50 ng/well | – | successful transfection | local transfection | greater significant light flux | – | – | – | – | – | – | successful and comparable transfection of local tissues
